How the values were obtained:
[1] = test system: SNU-16 cells (Gastric Carcinoma, FGFR2 amplification); assay: Cancer cell line cell viability assay, SNU-16; format: cell-based; conditions: Homo sapiens, 72 hours, Cell Titer-Glo 2.0, read-out: Cancer Cell Viability Assays SNU-16 (IC50 nM)
Description: (§1) [table] To detect the change of intracellular ATP by Cell Titer-Glo® and to evaluate the inhibitory effect of the compounds on cancer cell lines by determining the in vitro IC50 value of the compounds. Cell Titer-Glo® 2.0 Luminescent cell viability assay reagent was purchased from Promega (Madison, Wis.). RT112/84, SNU-16, and KG-1 cell lines were purchased from American Type Culture Collection (Manassas, Va.). UM-UC-14 cell line was purchased from Sigma (St. Louis, Mo.). RT112/84, UM-UC-14, SNU-16, and KG-1 cells were cultured in RPMI1640 media supplemented with 10% fetal bovine serum. Cultures were maintained at 37° C. in a humidified atmosphere of 5% CO2 and 95% air. Cell Viability Assay Procedure: Cells were plated in 96-well clear bottom/white plates (Corning #3903) at 10,000 cells/well in 100 μl of media, incubated overnight. The next day, test compound DMSO stock solutions were made at 10 mM and 2 μM final concentration. Compounds were then added to cells in a 9-dose, […] dilution series starting at 30 μM with an HP 300e Digital Dispenser (each dose was applied in triplicate). DMSO was backfilled to each well up to 301 nL total volume of test compound+DMSO, and a total of 301 nL DMSO was added to a control/no test compound well in triplicate. The cells in cell culture plates were incubated with the compounds at 37° C. and 5% CO2 for 72 hours. Then 50 μl of Cell Titer Glo 2.0 reagent was added to each well of the cell culture plates. The contents were covered from light and mixed on an orbital shaker at room temperature for 10 min. Luminescence was recorded by a Synergy H1 Microplate Reader (Biotek, Winooski, Vt.). Cells were assessed as a percentage of DMSO only treated control cells. Curves were plotted and IC50 values were calculated using the GraphPad Prism 8 program based on a sigmoidal dose-response equation (4 parameter).

[2] = target: T1, FGFR1-BCR Ba/F3 cells (Homo sapiens, UniProt P11362); assay: Ba/F3 cell viability assay, FGFR1; format: cell-based; conditions: FGFR1-BCR Ba/F3, 48 hours, Cell Titer-Glo 2.0; read-out: Ba/F3 Cells FGFR1 (IC50 nM)
T1 construct: Ba/F3 FGFR1; FGFR1-BCR; Advanced Cellular Dynamics, (Seattle, WA); fused on or other part: P11274 (Breakpoint cluster region protein)
Description: (§2) Experimental Purpose: Recombinant kinase fusions are transduced into parental Ba/F3, which becomes dependent upon this constitutive kinase activity for IL3-independent survival. Inhibition of kinase activity leads to cell death, which is monitored using CellTiter-Glo® 2.0 (Promega) which measures intracellular ATP concentration that in turn serves as a marker for viability. FGFR1-BCR Ba/F3 and FGFR3-BAIAP2L1 Ba/F3 were obtained from Advanced Cellular Dynamics (Seattle, Wash.)
(§3) Cell Viability Assay Procedure: Cell Titer-Glo® 2.0 Luminescent cell viability assay reagent was purchased from Promega (Madison, Wis.). FGFR1-BCR Ba/F3 and FGFR3-BAIAP2L1 Ba/F3 cells were cultured in RPMI1640 media supplemented with 10% fetal bovine serum. Cultures were maintained at 37° C. in a humidified atmosphere of 5% CO2 and 95% air.
(§4) Cells were plated in 96-well clear bottom/white plates (Corning #3903) at 10,000 cells/well in 100 μl of media, incubated overnight. The next day, test compound DMSO stock solutions were made at 10 mM and 2 μM final concentration. Compounds were then added to cells in a 9-dose, 10-fold dilution series starting at 30 μM with an HP 300e Digital Dispenser (each dose was applied in triplicate). DMSO was backfilled to each well up to 301 nL total volume of test compound+DMSO, and a total of 301 nL DMSO was added to a control/no test compound well in triplicate. The cells in cell culture plates were incubated with the compounds at 37° C. and 5% CO2 for 48 hours. Then 50 μl of Cell Titer Glo 2.0 reagent was added to each well of the cell culture plates. The contents were covered from light and mixed on an orbital shaker at room temperature for 10 min. Luminescence was recorded by a Synergy H1 Microplate Reader (Biotek, Winooski, Vt.). Cells were assessed as a percentage of DMSO only treated control cells. Curves were plotted and IC50 values were calculated using the GraphPad Prism 8 program based on a sigmoidal dose-response equation (4 parameter).

[3] = target: T2, FGFR3-BAIAP2L1 Ba/F3 cells (Homo sapiens, UniProt P22607); assay: Ba/F3 cell viability assay, FGFR3; format: cell-based; conditions: FGFR3-BAIAP2L1 fusion Ba/F3, 48 hours, Cell Titer-Glo 2.0; read-out: Ba/F3 Cells FGFR3 (IC50 nM)
T2 construct: Ba/F3 FGFR3; FGFR3--BAIAP2L1 fusion; Advanced Cellular Dynamics, (Seattle, WA); fused on or other part: Q9UHR4 (BAR/IMD domain-containing adapter protein 2-like 1)
Description: as §2, §3, §4

[4] = test system: RT112/84 cells (Bladder Cancer, FGFR3-TACC3 fusion); assay: Cancer cell line cell viability assay, RT112/84; format: cell-based; conditions: Homo sapiens, 72 hours, Cell Titer-Glo 2.0, read-out: Cancer Cell Viability Assays RT112/84 (IC50 nM)
Description: as §1

[5] = target: T3, FGFR4 (Homo sapiens, UniProt P22455); assay: Kinase binding assay (Kd), FGFR4; conditions: 11-point 3-fold dilution, qPCR readout
T3 construct: made in house; host or cells: E. coli host derived from BL21, infected with T7 phage
Summary of the method: (§5)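 Competition binding: kinase-tagged T7 phage, ligand-coated streptavidin beads and an 11-point 3-fold compound series (0.9% DMSO final) were incubated 1 h at room temperature. Bead-bound kinase was eluted and quantified by qPCR. Kd was fitted to the Hill equation with slope fixed at −1.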

[6] = target: T4, FGFR3 (Homo sapiens, UniProt P22607); assay: Kinase binding assay (Kd), FGFR3; conditions: 11-point 3-fold dilution, qPCR readout
T4 construct: made in house; host or cells: E. coli host derived from BL21, infected with T7 phage
Summary of the method: as §5

[7] = target: T5, FGFR2 (Homo sapiens, UniProt P21802); assay: Kinase binding assay (Kd), FGFR2; conditions: 11-point 3-fold dilution, qPCR readout
T5 construct: made in house; host or cells: E. coli host derived from BL21, infected with T7 phage
Summary of the method: as §5

[8] = target: T6, FGFR1 (Homo sapiens, UniProt P11362); assay: Kinase binding assay (Kd), FGFR1; conditions: 11-point 3-fold dilution, qPCR readout
T6 construct: made in house; host or cells: E. coli host derived from BL21, infected with T7 phage
Summary of the method: as §5

[9] = target: T7, FGFR3 (V555M) (Homo sapiens, UniProt P22607, V555M); assay: Kinase binding assay (Kd), FGFR3 (V555M); conditions: 11-point 3-fold dilution, qPCR readout
T7 construct: made in house; host or cells: E. coli host derived from BL21, infected with T7 phage
Summary of the method: as §5

T5 sequence (P21802 22-821): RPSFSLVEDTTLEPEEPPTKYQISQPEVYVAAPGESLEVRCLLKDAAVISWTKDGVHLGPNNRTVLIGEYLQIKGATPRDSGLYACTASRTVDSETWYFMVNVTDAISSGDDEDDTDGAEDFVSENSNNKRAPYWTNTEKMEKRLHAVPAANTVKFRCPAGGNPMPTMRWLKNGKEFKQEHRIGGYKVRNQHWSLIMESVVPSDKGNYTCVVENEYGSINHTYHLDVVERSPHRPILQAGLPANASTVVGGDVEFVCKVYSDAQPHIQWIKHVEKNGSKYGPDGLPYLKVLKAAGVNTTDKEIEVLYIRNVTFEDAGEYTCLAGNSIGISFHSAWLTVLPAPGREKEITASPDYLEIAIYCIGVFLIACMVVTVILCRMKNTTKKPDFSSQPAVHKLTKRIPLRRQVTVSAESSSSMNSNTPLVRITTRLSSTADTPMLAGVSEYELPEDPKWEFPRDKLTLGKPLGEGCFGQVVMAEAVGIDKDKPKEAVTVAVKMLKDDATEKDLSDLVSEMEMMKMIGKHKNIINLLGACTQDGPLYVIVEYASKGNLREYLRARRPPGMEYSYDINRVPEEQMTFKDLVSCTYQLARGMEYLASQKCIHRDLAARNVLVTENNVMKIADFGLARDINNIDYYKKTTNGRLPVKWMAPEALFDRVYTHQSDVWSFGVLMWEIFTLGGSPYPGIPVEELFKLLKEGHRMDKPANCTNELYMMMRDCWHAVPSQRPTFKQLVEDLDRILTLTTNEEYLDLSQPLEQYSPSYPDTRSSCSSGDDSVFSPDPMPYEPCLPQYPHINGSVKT
T6 sequence (P11362 22-822): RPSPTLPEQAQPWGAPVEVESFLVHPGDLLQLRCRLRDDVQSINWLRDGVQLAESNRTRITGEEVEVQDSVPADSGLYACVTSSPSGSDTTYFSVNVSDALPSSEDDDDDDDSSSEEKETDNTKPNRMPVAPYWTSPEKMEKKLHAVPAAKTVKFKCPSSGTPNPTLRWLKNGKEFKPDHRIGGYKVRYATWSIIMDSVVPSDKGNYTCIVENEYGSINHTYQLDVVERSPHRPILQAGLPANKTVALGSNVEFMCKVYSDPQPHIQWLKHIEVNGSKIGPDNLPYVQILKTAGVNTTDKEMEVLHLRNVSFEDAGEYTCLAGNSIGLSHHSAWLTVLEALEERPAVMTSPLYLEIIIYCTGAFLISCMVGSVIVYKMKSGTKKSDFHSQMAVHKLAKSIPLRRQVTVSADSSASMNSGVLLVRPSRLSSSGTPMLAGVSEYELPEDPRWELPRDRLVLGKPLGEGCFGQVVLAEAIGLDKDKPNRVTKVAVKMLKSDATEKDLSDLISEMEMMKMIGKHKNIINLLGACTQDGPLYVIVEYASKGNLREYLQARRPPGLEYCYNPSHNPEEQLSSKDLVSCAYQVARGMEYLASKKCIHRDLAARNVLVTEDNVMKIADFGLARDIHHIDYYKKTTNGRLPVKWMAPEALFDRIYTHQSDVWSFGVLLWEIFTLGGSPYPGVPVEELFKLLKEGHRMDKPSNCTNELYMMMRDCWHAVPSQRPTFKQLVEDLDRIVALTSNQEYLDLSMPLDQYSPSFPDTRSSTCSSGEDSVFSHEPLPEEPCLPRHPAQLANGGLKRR
T3 sequence (P22455 22-802): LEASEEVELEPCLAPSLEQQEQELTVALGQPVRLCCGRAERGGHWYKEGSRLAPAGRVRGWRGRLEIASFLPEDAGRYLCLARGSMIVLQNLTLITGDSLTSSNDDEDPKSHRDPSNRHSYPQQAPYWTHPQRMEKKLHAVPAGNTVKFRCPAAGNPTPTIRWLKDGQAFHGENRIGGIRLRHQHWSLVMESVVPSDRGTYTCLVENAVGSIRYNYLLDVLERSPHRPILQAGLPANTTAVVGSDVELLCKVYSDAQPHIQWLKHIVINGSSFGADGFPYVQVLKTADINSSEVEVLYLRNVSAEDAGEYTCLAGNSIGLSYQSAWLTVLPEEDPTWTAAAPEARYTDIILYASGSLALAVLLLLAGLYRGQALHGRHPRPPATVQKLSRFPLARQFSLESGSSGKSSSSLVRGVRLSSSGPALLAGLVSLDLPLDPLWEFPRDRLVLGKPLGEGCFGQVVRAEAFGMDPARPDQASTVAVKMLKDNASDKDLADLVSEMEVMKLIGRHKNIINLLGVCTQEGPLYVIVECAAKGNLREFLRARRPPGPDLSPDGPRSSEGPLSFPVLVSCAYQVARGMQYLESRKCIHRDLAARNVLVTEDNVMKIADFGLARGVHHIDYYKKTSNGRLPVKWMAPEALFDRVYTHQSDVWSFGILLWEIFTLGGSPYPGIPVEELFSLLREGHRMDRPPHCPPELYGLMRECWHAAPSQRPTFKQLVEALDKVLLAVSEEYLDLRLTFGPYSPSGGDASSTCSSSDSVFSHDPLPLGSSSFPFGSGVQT
T4 sequence (P22607 23-806): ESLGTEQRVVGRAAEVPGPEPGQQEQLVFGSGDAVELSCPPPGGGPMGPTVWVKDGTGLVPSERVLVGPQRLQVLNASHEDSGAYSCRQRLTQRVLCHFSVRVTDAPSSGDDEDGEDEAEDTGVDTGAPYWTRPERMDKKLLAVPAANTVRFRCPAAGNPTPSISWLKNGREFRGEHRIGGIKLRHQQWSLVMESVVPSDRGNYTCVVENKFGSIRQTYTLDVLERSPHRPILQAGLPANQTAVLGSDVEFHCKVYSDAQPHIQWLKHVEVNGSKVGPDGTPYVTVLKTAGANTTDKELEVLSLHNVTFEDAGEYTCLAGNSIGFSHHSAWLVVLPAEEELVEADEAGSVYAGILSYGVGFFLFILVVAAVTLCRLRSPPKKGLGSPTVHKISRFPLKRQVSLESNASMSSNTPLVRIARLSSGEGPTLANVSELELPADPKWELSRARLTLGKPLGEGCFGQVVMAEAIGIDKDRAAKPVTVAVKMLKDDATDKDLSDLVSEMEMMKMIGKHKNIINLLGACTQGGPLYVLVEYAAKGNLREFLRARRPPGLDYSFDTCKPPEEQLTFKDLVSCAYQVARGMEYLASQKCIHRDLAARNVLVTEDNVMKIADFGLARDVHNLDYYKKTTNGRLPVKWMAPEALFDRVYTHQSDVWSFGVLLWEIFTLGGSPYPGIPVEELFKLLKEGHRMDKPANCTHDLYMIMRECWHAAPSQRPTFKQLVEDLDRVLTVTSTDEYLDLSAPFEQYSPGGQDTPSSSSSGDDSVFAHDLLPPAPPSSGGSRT
T7 sequence (P22607 23-806 V555M): as the sequence (P22607 23-806) above, with V533M counted along it
T2 sequence (P22607 whole entry, change not shown, the tested form may be a part): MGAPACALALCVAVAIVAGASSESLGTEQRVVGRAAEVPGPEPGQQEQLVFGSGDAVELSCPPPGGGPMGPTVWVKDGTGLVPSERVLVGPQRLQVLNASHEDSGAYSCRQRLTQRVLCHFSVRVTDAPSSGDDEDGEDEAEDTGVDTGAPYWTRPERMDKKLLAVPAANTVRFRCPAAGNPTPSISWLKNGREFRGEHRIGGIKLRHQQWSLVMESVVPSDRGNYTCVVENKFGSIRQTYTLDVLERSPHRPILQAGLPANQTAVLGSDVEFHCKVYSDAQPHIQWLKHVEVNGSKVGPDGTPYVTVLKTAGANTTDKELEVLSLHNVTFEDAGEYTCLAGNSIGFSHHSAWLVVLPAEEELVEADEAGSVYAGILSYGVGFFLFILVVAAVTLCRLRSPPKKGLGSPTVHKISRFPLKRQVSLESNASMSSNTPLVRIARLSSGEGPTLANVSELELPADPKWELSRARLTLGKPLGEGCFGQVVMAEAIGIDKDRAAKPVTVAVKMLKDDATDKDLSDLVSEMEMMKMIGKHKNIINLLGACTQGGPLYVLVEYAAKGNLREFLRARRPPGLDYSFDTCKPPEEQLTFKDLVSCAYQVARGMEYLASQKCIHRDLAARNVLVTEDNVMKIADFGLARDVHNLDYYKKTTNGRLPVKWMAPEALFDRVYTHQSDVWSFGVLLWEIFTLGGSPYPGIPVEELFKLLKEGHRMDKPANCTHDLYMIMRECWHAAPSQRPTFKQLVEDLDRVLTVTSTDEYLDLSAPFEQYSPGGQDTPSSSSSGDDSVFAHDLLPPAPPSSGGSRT
T1 sequence (P11362 whole entry, change not shown, the tested form may be a part): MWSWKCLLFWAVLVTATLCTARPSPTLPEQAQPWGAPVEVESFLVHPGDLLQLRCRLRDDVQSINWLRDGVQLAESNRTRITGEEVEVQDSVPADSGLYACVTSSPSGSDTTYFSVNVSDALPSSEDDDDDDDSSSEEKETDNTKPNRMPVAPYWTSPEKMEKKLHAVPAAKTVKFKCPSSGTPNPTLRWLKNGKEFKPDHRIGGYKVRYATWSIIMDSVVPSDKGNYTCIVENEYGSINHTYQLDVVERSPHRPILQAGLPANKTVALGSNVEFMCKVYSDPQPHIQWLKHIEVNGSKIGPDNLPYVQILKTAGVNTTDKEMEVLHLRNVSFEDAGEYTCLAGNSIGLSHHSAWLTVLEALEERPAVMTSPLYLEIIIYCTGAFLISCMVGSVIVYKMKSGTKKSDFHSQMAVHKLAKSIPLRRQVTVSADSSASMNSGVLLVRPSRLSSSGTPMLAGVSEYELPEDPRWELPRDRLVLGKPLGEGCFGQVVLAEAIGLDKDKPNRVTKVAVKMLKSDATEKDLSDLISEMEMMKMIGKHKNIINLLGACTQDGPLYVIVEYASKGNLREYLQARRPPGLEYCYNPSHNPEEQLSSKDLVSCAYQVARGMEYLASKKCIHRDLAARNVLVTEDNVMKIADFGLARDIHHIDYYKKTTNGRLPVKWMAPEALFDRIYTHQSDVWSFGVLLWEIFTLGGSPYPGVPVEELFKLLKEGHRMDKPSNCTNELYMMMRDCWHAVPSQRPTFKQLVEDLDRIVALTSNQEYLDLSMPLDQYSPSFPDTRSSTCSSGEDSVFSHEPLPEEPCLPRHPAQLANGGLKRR

| SMILES | IC50 [1] [nM] | IC50 [4] [nM] | Kd [5] [nM] | Kd [6] [nM] | Kd [7] [nM] | Kd [8] [nM] | Kd [9] [nM] | GI50 [2] [nM] | GI50 [3] [nM] |
| --- | --- | --- | --- | --- | --- | --- | --- | --- | --- |
| Cc1cnc(Nc2ccc(N=S(C)(C)=O)c(OCCN3CCOCC3)c2)nc1-c1c[nH]c2ccccc12 [Example 27, N-[4-[[dimethyl(oxo)-λ^6-sulfanylidene]amino]-3-(2-morpholinoethoxy)phenyl]-4-(1H-indol-3-yl)-5-methyl-pyrimidin-2-amine] | 16 | 43 | 110 | 2 | 1 | 2 |  | 11 |  |
| COc1cc(Nc2ncc(C)c(-c3c[nH]c4c(C)cccc34)n2)ccc1N=S(C)(C)=O [Example 31, N-[4-[[dimethyl(oxo)-λ^6-sulfanylidene]amino]-3-methoxy-phenyl]-5-methyl-4-(7-methyl-1H-indol-3-yl)pyrimidin-2-amine] | 5 | 23 | 62 | 5 | 3 | 1 | 0.5 | 2 | 40 |
| Cc1[nH]c2ccccc2c1-c1nc(Nc2ccc(S(C)(=N)=O)cc2)ncc1Cl (stereo not shown) [Example 56, 5-Chloro-4-(2-methyl-1H-indol-3-yl)-N-[4-(methylsulfonimidoyl)phenyl]-pyrimidin-2-amine] | 857 | 377 | 740 | 49 | 34 | 64 | 3 |  | 273 |
| C=CC(=O)Nc1ccc2c(-c3nc(Nc4ccc(N=S(C)(C)=O)c(F)c4)ncc3Cl)cn(C)c2c1 [Example 93, N-[3-[5-Chloro-2-[4-[[dimethyl(oxo)-λ^6-sulfanylidene]amino]-3-fluoro-anilino]pyrimidin-4-yl]-1-methyl-indol-6-yl]prop-2-enamide] |  |  |  |  |  |  |  | 1 | 14 |
| C=CC(=O)Nc1ccc2c(-c3nc(Nc4ccc(N=S(C)(C)=O)nc4)ncc3Cl)cn(C)c2c1 [Example 94, N-[3-[5-Chloro-2-[[6-[[dimethyl(oxo)-λ^6-sulfanylidene]amino]-3-pyridyl]amino]pyrimidin-4-yl]-1-methyl-indol-6-yl]prop-2-enamide] |  |  |  |  |  |  |  | 4 | 23 |

Further compounds by falling Kd [5], results first:

| IC50 [1] [nM] | IC50 [4] [nM] | Kd [5] [nM] | Kd [6] [nM] | Kd [7] [nM] | Kd [8] [nM] | Kd [9] [nM] | SMILES | GI50 [2] [nM] | GI50 [3] [nM] |
| --- | --- | --- | --- | --- | --- | --- | --- | --- | --- |
|  |  | 2300 | 180 | 89 | 330 | 16 | C=CC(=O)Nc1cc2ccn(-c3nc(Nc4ccc(N=S(C)(C)=O)cc4)ncc3Cl)c2cc1C [Example 85, N-[1-[5-chloro-2-[4-[[dimethyl(oxo)-λ^6-sulfanylidene]amino]anilino]-pyrimidin-4-yl]-6-methyl-indol-5-yl]prop-2-enamide] | 171 | 459 |
| 803 | 610 | 680 | 53 | 43 | 50 | 6 | Cc1cnc(Nc2ccc(S(C)(=N)=O)cc2)nc1-c1c(C)[nH]c2ccccc12 (stereo not shown) [Example 57, 5-Methyl-4-(2-methyl-1H-indol-3-yl)-N-[4-(methylsulfonimidoyl)phenyl]-pyrimidin-2-amine] |  | 431 |
| 173 | 111 | 91 | 10 | 2 | 42 | 1 | COc1cc(Nc2ncc(C)c(-c3c[nH]c4ccccc34)n2)ccc1N=S(C)(C)=O [Example 26, N-[4-[[dimethyl(oxo)-λ^6-sulfanylidene]amino]-3-methoxy-phenyl]-4-(1H-indol-3-yl)-5-methyl-pyrimidin-2-amine] | 75 | 15 |
| 108 | 153 | 57 | 370 | 3300 | 350 | 57 | Cc1cnc(Nc2ccc(N=S(C)(C)=O)cc2)nc1-c1c[nH]c2ccccc12 [Example 11, N-[4-[[dimethyl(oxo)-λ^6-sulfanylidene]amino]phenyl]-4-(1H-indol-3-yl)-5-methyl-pyrimidin-2-amine] | 115 | 15 |

From US20230115945A1, “AMINOPYRIMIDINE COMPOUNDS” (TYRA BIOSCIENCES, INC., priority 2019, published 2023)
